Experimental data reported in article PMC9841592 (ACS Medicinal Chemistry Letters, 2022).
Entries after “also recorded” stand apart in the source; their conditions may differ. Where two headings read alike, the source gives them in different places. Marks after values point to notes of the source that are not given here.

Tests used:
[1] = system: plasma IGF-1; assay: Plasma IGF-1 after repeated daily oral dosing in rats; format: in vivo, rat; details: male SD rats
[2] = target: T1, hERG (Homo sapiens, UniProt Q12809); details: for hERG ion channel inhibition (in words): hERG inhibition binding assay
[3] = system: IGF-1; details: Phase 2, acromegaly patients switched to oral paltusotine; cited from earlier work
[4] = target: T1, hERG; assay: Patch-clamp hERG assay; format: cell-based
[5] = system: GH secretion and IGF-1; details: cited from earlier work; for effect on IGF-1 levels / effect on GHRH-stimulated GH secretion: Phase 1, healthy volunteers; for effect on IGF-1 levels: over several days
[6] = system: plasma IGF-1; assay: Plasma IGF-1 after repeated daily oral dosing in dogs; format: in vivo, dog; details: p < 0.05
[7] = target: Human SST2 (Homo sapiens, UniProt P30874); format: cell-based
[8] = healthy human volunteers, Phase 1 study; cited from earlier work

T1 sequence (Q12809 whole entry): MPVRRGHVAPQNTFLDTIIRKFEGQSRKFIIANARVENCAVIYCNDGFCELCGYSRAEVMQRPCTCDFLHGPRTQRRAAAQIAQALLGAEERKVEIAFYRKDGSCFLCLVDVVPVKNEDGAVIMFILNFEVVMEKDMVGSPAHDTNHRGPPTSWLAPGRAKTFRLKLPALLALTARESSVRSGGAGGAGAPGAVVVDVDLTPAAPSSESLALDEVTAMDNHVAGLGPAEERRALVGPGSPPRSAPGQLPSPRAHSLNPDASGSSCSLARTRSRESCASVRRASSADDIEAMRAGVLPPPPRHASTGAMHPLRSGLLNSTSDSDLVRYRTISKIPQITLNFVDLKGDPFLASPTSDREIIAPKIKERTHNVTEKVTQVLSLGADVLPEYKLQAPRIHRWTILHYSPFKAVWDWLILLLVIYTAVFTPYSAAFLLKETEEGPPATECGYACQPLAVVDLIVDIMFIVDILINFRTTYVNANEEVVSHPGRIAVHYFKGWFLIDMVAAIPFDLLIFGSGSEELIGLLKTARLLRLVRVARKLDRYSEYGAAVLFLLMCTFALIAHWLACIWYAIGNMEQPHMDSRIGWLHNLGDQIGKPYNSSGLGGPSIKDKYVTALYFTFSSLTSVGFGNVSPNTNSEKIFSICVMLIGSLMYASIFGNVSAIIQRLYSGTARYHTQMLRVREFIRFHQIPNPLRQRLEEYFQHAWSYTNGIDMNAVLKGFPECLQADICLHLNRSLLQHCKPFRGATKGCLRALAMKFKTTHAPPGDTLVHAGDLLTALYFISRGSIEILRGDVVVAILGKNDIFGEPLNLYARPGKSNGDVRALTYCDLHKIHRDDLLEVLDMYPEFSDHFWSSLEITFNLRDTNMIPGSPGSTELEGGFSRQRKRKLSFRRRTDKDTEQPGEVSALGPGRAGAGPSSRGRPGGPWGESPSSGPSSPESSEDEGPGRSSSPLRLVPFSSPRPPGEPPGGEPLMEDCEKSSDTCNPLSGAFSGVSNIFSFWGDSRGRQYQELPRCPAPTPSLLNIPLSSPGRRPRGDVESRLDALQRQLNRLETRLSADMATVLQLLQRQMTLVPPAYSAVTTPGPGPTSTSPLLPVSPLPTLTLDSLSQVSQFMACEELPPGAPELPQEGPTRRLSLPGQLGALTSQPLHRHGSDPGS
Human SST2, sequence (P30874 whole entry): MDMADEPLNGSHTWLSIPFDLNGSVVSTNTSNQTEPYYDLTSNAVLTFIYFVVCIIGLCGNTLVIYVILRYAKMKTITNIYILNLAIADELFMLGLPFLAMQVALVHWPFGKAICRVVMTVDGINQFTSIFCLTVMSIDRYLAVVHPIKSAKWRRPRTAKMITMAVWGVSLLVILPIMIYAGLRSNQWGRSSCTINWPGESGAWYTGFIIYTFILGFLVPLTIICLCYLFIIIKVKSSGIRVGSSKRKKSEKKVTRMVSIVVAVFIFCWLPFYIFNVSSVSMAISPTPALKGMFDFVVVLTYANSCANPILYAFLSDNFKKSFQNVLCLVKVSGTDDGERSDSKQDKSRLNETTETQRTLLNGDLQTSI

N#Cc1cccc(-c2ccc3ncc(-c4cc(F)cc(F)c4)c(N4CCC(N)CC4)c3c2)c1O [Compound 22, 3-[4-(4-aminopiperidin-1-yl)-3-(3,5-difluorophenyl)quinolin-6-yl]-2-hydroxybenzonitrile]
suppression of plasma IGF-1 relative to vehicle ([1]; 10 mg/kg/day po for 14 days, days 2, 10 and 14, p < 0.05): significantly suppressed
suppression of plasma IGF-1 relative to vehicle ([1]; 30 mg/kg/day po for 14 days, all days measured, p < 0.05): significantly suppressed
hERG pIC50±SEM ([2]; hERG binding assay): <5 ^c
hERG ion channel inhibition (in words) [2]: weak inhibitors; also recorded: no direct inhibition
effect on IGF-1 levels after switch from injected depots [3]: maintain IGF-1 levels
IC50 [4]: 9.9 µM
effect on IGF-1 levels ([5]; listed as Paltusotine): dose-dependent reduction
effect on IGF-1 levels ([5]; listed as paltusotine): lowered IGF-1 levels
effect on GHRH-stimulated GH secretion ([5]; listed as Paltusotine): dose-dependent reduction
effect on GHRH-stimulated GH secretion ([5]; listed as paltusotine): acutely suppressed
tolerability ([5]; double-blind placebo-controlled Phase 1 trial, healthy volunteers): good tolerability
suppression of plasma IGF-1 relative to vehicle, day 1 ([6]; male and female beagle dogs, 150 mg/kg/day po): significantly suppressed
suppression of plasma IGF-1 compared to vehicle, day 7 ([6]; male and female beagle dogs, 6, 30 and 150 mg/kg/day po for 7 days): significantly suppressed
selectivity for SST2 over other SST receptor subtypes [7]: > 1000 fold
oral bioavailability [8]: ~70%

N#Cc1cc(F)cc(-c2ccc3ncc(-c4cc(F)cc(F)c4)c(N4CCC(N)CC4)c3c2)c1O [Compound 24]
hERG ion channel inhibition (in words) [2]: weak inhibitors

N#Cc1cccc(-c2ccc3ncc(-c4cccc(F)c4)c(N4CCC(N)CC4)c3c2)c1O [Compound 25]
hERG ion channel inhibition (in words) [2]: weak inhibitors
